Experiment [1] addresses T1, ABL1 (64-515) (Homo sapiens (Human), UniProt P00519). The experiment can be described thus: Radio ABL1 (64-515) radiometric filter-binding kinase assay. In kind it is biochemical. Particulars: 20 μM ATP.
Experimental: Pre-incubation of enzyme with compounds (when stated) was performed by exposing the enzyme to compounds prior to addition of the substrate mixture (ATP and/or peptide substrate). […] Filter-plates were washed 3× with 0.5% H3PO4, followed by addition of 30 μL scintillation cocktail (Microscint, Perkin Elmer) per well and then analysed in a TopCount NXT scintillation counter (Perkin Elmer). Results were expressed as IC50 values.
The target in experiment [2] is T1, ABL1 (64-515). The experiment can be described thus: Caliper ABL1 (64-515) microfluidic mobility shift kinase assay. Conditions: read-out: Caliper ABL1 (64-515) IC50.

As a reminder, the IC50 is the concentration at which inhibition is half-maximal.

Some results are limits rather than exact numbers.

T1 sequence (P00519 64-515): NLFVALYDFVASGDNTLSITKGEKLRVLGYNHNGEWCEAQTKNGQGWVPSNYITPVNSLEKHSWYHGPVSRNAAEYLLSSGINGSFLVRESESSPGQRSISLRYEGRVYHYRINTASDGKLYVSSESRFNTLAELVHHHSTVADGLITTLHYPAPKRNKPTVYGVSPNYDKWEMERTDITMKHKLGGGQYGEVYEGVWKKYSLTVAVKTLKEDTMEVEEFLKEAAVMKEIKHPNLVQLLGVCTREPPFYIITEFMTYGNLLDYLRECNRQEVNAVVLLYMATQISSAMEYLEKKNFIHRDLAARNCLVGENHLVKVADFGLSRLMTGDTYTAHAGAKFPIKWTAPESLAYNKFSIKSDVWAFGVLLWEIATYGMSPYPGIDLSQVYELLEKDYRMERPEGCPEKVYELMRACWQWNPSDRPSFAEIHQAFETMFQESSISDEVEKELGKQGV

As for `O=C(Nc1ccc(OC(F)(F)F)cc1)c1ccc(N2C[C@H](O)[C@@H](O)C2)c(-c2ccc[nH]2)c1` [Example 28, 4-((3S,4S)-3,4-Dihydroxypyrrolidin-1-yl)-3-(1H-pyrrol-2-yl)-N-(4-(trifluoromethoxy)phenyl)benzamide], the values for the IC50 at ABL1 (64-515) [1] and on ABL1 (64-515) [2] were 3 nM and 4.2 nM, respectively.

`N#Cc1ccc(-c2cc(C(=O)Nc3ccc(OC(F)(F)F)cc3)ccc2N2C[C@H](O)[C@@H](O)C2)[nH]1` [Example 29, 3-(5-Cyano-1H-pyrrol-2-yl)-4-((3S,4S)-3,4-dihydroxypyrrolidin-1-yl)-N-(4-(trifluoromethoxy)phenyl)benzamide]: the half-inhibitory concentration (IC50) on ABL1 (64-515) [1] was < 0.1 nM; on ABL1 (64-515) [2] it was 0.5 nM.

As to `N#Cc1ccc(-c2cc(C(=O)Nc3ccc(OC(F)(F)F)cc3)cnc2N2C[C@H](O)[C@@H](O)C2)[nH]1` [Example 31, 5-(5-Cyano-1H-pyrrol-2-yl)-6-((3S,4S)-3,4-dihydroxypyrrolidin-1-yl)-N-(4-(trifluoromethoxy)phenyl)nicotinamide], the values for the IC50 on ABL1 (64-515) [1] and on ABL1 (64-515) [2] were < 0.1 nM and < 0.13 nM, respectively.

As to `NC12CC1CN(c1ncc(C(=O)Nc3ccc(OC(F)(F)F)cc3)cc1-c1ccn[nH]1)C2` (centres unmarked) [Example 33, 6-(1-Amino-3-azabicyclo[3.1.0]hexan-3-yl)-5-(1H-pyrazol-5-yl)-N-(4-(trifluoromethoxy)phenyl)nicotinamide], the IC50 was 3 nM at ABL1 (64-515) [1] and 5 nM at ABL1 (64-515) [2].

Take `O=C(Nc1ccc(OC(F)(F)F)cc1)c1cnc(N2CCOC(CO)C2)c(-c2ccn[nH]2)c1` (centres unmarked) [Example 36, 6-(2-(Hydroxymethyl)morpholino)-5-(1H-pyrazol-5-yl)-N-(4-(trifluoromethoxy)phenyl)nicotinamide]: the IC50 was 5 nM at ABL1 (64-515) [1] and 8.1 nM at ABL1 (64-515) [2].

Regarding `CN(C)C1CN(c2ncc(C(=O)Nc3ccc(OC(F)(F)F)cc3)cc2-c2ccn[nH]2)C1` [Example 38, 6-(3-(Dimethylamino)azetidin-1-yl)-5-(1H-pyrazol-5-yl)-N-(4-(trifluoromethoxy)phenyl)nicotinamide], the IC50 at ABL1 (64-515) [1] came out at 8 nM; on ABL1 (64-515) [2], 1.5 nM.

Take `O=C(Nc1ccc(OC(F)(F)F)cc1)c1cnc(N2CC(CO)C2)c(-c2ccn[nH]2)c1` [Example 39, 6-(3-(Hydroxymethyl)azetidin-1-yl)-5-(1H-pyrazol-5-yl)-N-(4-(trifluoromethoxy)phenyl)nicotinamide]: the IC50 on ABL1 (64-515) [1] was 3 nM; on ABL1 (64-515) [2] it was 4.5 nM.

Take `CC1(O)CN(c2ncc(C(=O)Nc3ccc(OC(F)(F)F)cc3)cc2-c2ccn[nH]2)C1` [Example 40, 6-(3-Hydroxy-3-methylazetidin-1-yl)-5-(1H-pyrazol-5-yl)-N-(4-(trifluoromethoxy)phenyl)nicotinamide]: the IC50 worked out at 4 nM on ABL1 (64-515) [1] and 5.3 nM at ABL1 (64-515) [2].

With `Cc1cc(-c2cc(C(=O)Nc3ccc(OC(F)(F)F)cc3)cnc2N2CC(CO)C2)[nH]n1` [Example 42, 6-(3-(Hydroxymethyl)azetidin-1-yl)-5-(3-methyl-1H-pyrazol-5-yl)-N-(4-(trifluoromethoxy)phenyl)nicotinamide], the IC50 at ABL1 (64-515) [1] came to 2 nM; at ABL1 (64-515) [2], 18 nM.

For the compound `N#Cc1cc(-c2cc(C(=O)Nc3ccc(OC(F)(F)F)cc3)cnc2N2CCCC2)[nH]n1` [Example 44, 5-(3-Cyano-1H-pyrazol-5-yl)-6-(pyrrolidin-1-yl)-N-(4-(trifluoromethoxy)phenyl)nicotinamide], the IC50 came out at 19 nM on ABL1 (64-515) [1] and 7.1 nM on ABL1 (64-515) [2].

Turning to `N#Cc1ccc(-c2cc(C(=O)Nc3ccc(OC(F)(F)Cl)cc3)cnc2N2C[C@H](O)[C@@H](O)C2)[nH]1` [Example 46, N-(4-(Chlorodifluoromethoxy)phenyl)-5-(5-cyano-1H-pyrrol-2-yl)-6-((3S,4S)-3,4-dihydroxypyrrolidin-1-yl)nicotinamide], the IC50 at ABL1 (64-515) [1] was 1 nM; at ABL1 (64-515) [2], 0.4 nM.

Regarding `Cn1c(C#N)ccc1-c1cc(C(=O)Nc2ccc(OC(F)(F)Cl)cc2)cnc1N1CC[C@@H](O)C1` [Example 47, (R)—N-(4-(Chlorodifluoromethoxy)phenyl)-5-(5-cyano-1-methyl-1H-pyrrol-2-yl)-6-(3-hydroxypyrrolidin-1-yl)nicotinamide], the IC50 was 0.9 nM at ABL1 (64-515) [1] and 1.6 nM at ABL1 (64-515) [2].

As for `NCC1(F)CCN(c2ncc(C(=O)Nc3ccc(OC(F)(F)Cl)cc3)cc2-c2ccn[nH]2)C1` (centres unmarked) [Example 51, 6-(3-(Aminomethyl)-3-fluoropyrrolidin-1-yl)-N-(4-(chlorodifluoromethoxy)phenyl)-5-(1H-pyrazol-5-yl)nicotinamide], the IC50 at ABL1 (64-515) [1] is 4.9 nM; on ABL1 (64-515) [2], 1.1 nM.

With `CN(C)[C@H]1CN(c2ncc(C(=O)Nc3ccc(OC(F)(F)Cl)cc3)cc2-c2ccn[nH]2)C[C@@H]1O` [Example 53, N-(4-(Chlorodifluoromethoxy)phenyl)-6-((3S,4S)-3-(dimethylamino)-4-hydroxypyrrolidin-1-yl)-5-(1H-pyrazol-5-yl)nicotinamide], the IC50 is < 0.1 nM at ABL1 (64-515) [1] and 1.4 nM at ABL1 (64-515) [2].

Take `NC12CC1CN(c1ncc(C(=O)Nc3ccc(OC(F)(F)Cl)cc3)cc1-c1ccn[nH]1)C2` (centres unmarked) [Example 54, 6-(1-Amino-3-azabicyclo[3.1.0]hexan-3-yl)-N-(4-(chlorodifluoromethoxy)phenyl)-5-(1H-pyrazol-5-yl)nicotinamide]: the IC50 on ABL1 (64-515) [1] was determined as 1 nM; on ABL1 (64-515) [2] it was 0.4 nM.

As for `N[C@@H]1[C@H]2CN(c3ncc(C(=O)Nc4ccc(OC(F)(F)Cl)cc4)cc3-c3ccn[nH]3)C[C@@H]12` [Example 55, 6-((1R,5S,6s)-6-Amino-3-azabicyclo[3.1.0]hexan-3-yl)-N-(4-(chlorodifluoromethoxy)phenyl)-5-(1H-pyrazol-5-yl)nicotinamide], the values for the IC50 at ABL1 (64-515) [1] and on ABL1 (64-515) [2] were 1 nM and 0.2 nM, respectively.

`O=C(Nc1ccc(OC(F)(F)Cl)cc1)c1cnc(N2CCNC3(CC3)C2)c(-c2ccn[nH]2)c1` [Example 56, N-(4-(Chlorodifluoromethoxy)phenyl)-5-(1H-pyrazol-5-yl)-6-(4,7-diazaspiro[2.5]octan-7-yl)nicotinamide]: the IC50 at ABL1 (64-515) [1] turned out to be 1 nM; at ABL1 (64-515) [2] it was 2.9 nM.

Take `O=C(Nc1ccc(OC(F)(F)Cl)cc1)c1cnc(N2CCN(C3CC3)CC2)c(-c2ccn[nH]2)c1` [Example 57, N-(4-(Chlorodifluoromethoxy)phenyl)-6-(4-cyclopropylpiperazin-1-yl)-5-(1H-pyrazol-5-yl)nicotinamide]: the results for the 50% inhibitory concentration (IC50) at ABL1 (64-515) [1] and on ABL1 (64-515) [2] were 5.8 nM and 3.4 nM, respectively.

On to `O=C(Nc1ccc(OC(F)(F)Cl)cc1)c1cnc(N2CCN(CCF)CC2)c(-c2ccn[nH]2)c1` [Example 58, N-(4-(Chlorodifluoromethoxy)phenyl)-6-(4-(2-fluoroethyl)piperazin-1-yl)-5-(1H-pyrazol-5-yl)nicotinamide], for which the IC50 on ABL1 (64-515) [1] was 5.7 nM; at ABL1 (64-515) [2] it was 2.4 nM.

Turning to `O=C(Nc1ccc(OC(F)(F)Cl)cc1)c1cnc(N2CCN(CC(F)F)CC2)c(-c2ccn[nH]2)c1` [Example 59, N-(4-(Chlorodifluoromethoxy)phenyl)-6-(4-(2,2-difluoroethyl)piperazin-1-yl)-5-(1H-pyrazol-5-yl)nicotinamide], the IC50 amounted to 26 nM at ABL1 (64-515) [1] and 3.3 nM on ABL1 (64-515) [2].

With `O=C(Nc1ccc(OC(F)(F)Cl)cc1)c1cnc(N2CCN(CC(F)(F)F)CC2)c(-c2ccn[nH]2)c1` [Example 60, N-(4-(Chlorodifluoromethoxy)phenyl)-5-(1H-pyrazol-5-yl)-6-(4-(2,2,2-trifluoroethyl)piperazin-1-yl)nicotinamide], the results for the IC50 at ABL1 (64-515) [1] and on ABL1 (64-515) [2] were 1 nM and < 0.64 nM, respectively.

Take `NC1CN(c2ncc(C(=O)Nc3ccc(OC(F)(F)Cl)cc3)cc2-c2ccn[nH]2)C1` [Example 64, 6-(3-Aminoazetidin-1-yl)-N-(4-(chlorodifluoromethoxy)phenyl)-5-(1H-pyrazol-5-yl)nicotinamide]: the IC50 on ABL1 (64-515) [1] worked out at 4 nM; on ABL1 (64-515) [2], 0.2 nM.

For the compound `CN(C)C1CN(c2ncc(C(=O)Nc3ccc(OC(F)(F)Cl)cc3)cc2-c2ccn[nH]2)C1` [Example 65, N-(4-(Chlorodifluoromethoxy)phenyl)-6-(3-(dimethylamino)azetidin-1-yl)-5-(1H-pyrazol-5-yl)nicotinamide], the IC50 is 5.6 nM on ABL1 (64-515) [1] and 0.9 nM at ABL1 (64-515) [2].

On to `CC1(O)CN(c2ncc(C(=O)Nc3ccc(OC(F)(F)Cl)cc3)cc2-c2ccn[nH]2)C1` [Example 66, N-(4-(Chlorodifluoromethoxy)phenyl)-6-(3-hydroxy-3-methylazetidin-1-yl)-5-(1H-pyrazol-5-yl)nicotinamide], for which the concentration for half-maximal inhibition (IC50) came out at 1.5 nM on ABL1 (64-515) [1] and 0.8 nM at ABL1 (64-515) [2].

Regarding `O=C(Nc1ccc(OC(F)(F)Cl)cc1)c1cnc(N2CC3(CNC3)C2)c(-c2ccn[nH]2)c1` [Example 68, N-(4-(Chlorodifluoromethoxy)phenyl)-5-(1H-pyrazol-5-yl)-6-(2,6-diazaspiro[3.3]heptan-2-yl)nicotinamide], the IC50 on ABL1 (64-515) [1] was 2 nM; at ABL1 (64-515) [2] it was < 0.13 nM.

Consider `N[C@H]1CN(c2ccc(C(=O)Nc3ccc(OC(F)(F)Cl)cc3)cc2-c2ccn[nH]2)C[C@@H]1O` [Example 76, 4-((3S,4S)-3-Amino-4-hydroxypyrrolidin-1-yl)-N-(4-(chlorodifluoromethoxy)phenyl)-3-(1H-pyrazol-5-yl)benzamide], for which the IC50 was found to be 3 nM at ABL1 (64-515) [1] and 1.4 nM at ABL1 (64-515) [2].

Consider `Cc1cc(-c2cc(C(=O)Nc3ccc(OC(F)(F)Cl)cc3)ccc2N2C[C@H](N)[C@@H](O)C2)[nH]n1` [Example 84, 4-((3S,4S)-3-Amino-4-hydroxypyrrolidin-1-yl)-N-(4-(chlorodifluoromethoxy)phenyl)-3-(3-methyl-1H-pyrazol-5-yl)benzamide], for which the IC50 at ABL1 (64-515) [1] was 2 nM; on ABL1 (64-515) [2] it was 0.8 nM.

`O=C(Nc1ccc(OC(F)(F)Cl)cc1)c1cnc(N2CCC(O)CC2)c(-c2ccn[nH]2)c1` [Example 85, N-(4-(Chlorodifluoromethoxy)phenyl)-6-(4-hydroxypiperidin-1-yl)-5-(1H-pyrazol-5-yl)nicotinamide]: the values for the IC50 at ABL1 (64-515) [1] and on ABL1 (64-515) [2] were 2 nM and 0.7 nM, respectively.

(Values after patent US9340537B2, “Benzamide derivatives for inhibiting the activity of ABL1, ABL2 and BCR-ABL1” (NOVATIS AG, priority 2012, dated 2016).)
